Laboratory results from patent US9663486B2, “Selectively substituted quinoline compounds” (EISAI R&D MANAGEMENT CO., LTD., priority 2013, dated 2017).

Assays:
mouse TLR7 = target: T1, mouse TLR7 (Mus musculus, UniProt P58681); assay: Short-term in vivo (STIV) assay, plasma IL-6 after R848; settings: plasma IL-6 after R848 s.c., BALB/c mice
T1 construct: tissue Jackson Labs; host or cells: live female BALB/c mice
T1 sequence (P58681 27-1050): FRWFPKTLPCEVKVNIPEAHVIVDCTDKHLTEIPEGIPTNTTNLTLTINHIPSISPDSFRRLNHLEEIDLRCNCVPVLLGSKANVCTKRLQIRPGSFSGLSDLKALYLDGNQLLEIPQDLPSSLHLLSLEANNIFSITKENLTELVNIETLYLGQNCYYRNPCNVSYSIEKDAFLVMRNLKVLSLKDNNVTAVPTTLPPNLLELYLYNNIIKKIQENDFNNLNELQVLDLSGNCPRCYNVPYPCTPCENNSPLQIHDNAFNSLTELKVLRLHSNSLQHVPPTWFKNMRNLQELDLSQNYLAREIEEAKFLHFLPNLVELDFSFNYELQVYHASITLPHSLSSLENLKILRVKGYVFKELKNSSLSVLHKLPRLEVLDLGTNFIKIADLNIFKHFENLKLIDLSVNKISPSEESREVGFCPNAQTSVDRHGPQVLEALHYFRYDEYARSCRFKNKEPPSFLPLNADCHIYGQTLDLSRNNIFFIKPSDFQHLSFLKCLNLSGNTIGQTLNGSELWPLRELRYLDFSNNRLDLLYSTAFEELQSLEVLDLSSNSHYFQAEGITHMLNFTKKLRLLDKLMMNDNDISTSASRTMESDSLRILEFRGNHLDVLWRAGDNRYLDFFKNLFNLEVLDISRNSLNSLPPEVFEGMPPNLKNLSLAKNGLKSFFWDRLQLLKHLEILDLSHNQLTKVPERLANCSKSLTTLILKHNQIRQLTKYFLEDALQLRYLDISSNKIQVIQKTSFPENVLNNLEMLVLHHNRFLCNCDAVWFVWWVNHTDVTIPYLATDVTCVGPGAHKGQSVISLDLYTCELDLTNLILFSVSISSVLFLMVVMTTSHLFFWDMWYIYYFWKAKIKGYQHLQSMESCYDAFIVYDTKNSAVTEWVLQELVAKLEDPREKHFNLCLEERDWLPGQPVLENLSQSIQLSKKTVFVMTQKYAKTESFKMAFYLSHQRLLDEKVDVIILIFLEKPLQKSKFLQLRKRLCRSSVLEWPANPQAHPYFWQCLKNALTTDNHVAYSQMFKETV
Description: To assess compound potency in vivo against mouse TLR7, a short-term in vivo (STIV) assay was utilized. Briefly, mice were orally dosed with compounds and at various time points afterwards were injected subcutaneously with agonist R848 to stimulate TLR7. The plasma IL-6 level following R848 stimulation was then measured by ELISA to assess compound potency and duration-of-action. […] Therefore, the activity of compounds in the STIV assay can be confidently attributed to their modulation of the TLR7 pathway.
Six to eight week old female BALB/c mice (Jackson Labs, Bar Harbor, Me.) were dosed by oral gavage in 200 ul volume with antagonist compounds formulated in 0.5% aqueous methyl-cellulose (Sigma, St. Louis, Mo.). At various time points afterwards, mice were injected subcutaneously (s.c.) in 100 ul volume with 15 ug R848 (Resiquimod; GLSynthesis, Worcester, Mass.) to stimulate TLR7. Blood plasma was collected by cardiac puncture, and levels of IL-6 at 1.5 hours after TLR7 stimulation were then assessed by standard ELISA procedure according to the manufacturer's recommended protocol (R&D Systems).

Human TLR7/8 = assay: Human PBMC cell-based assay, TLR7/8 (RNA-Ig), cytokine ELISA; settings: Hu PBMC; ligand RNA-Ig; read-out: IC50, IL-6, Human TLR7/8
Description: Human peripheral blood mononuclear cells (PBMC) were isolated from freshly-drawn heparinized (10 USP units/ml, Hospira, Lakeforest, Ill.) healthy donor whole blood by density gradient (Histopaque® 1077, Sigma, Inc., St. Louis, Mo.). Briefly, 25 ml blood was diluted with 15 ml PBS (without Ca^2+, Mg^2+) in a 50 ml conical tube, and 12 ml Histopaque was underlaid using a spinal needle. Tubes were centrifuged for 45 minutes at 1200 rpm (350×g), and PBMC were collected from the buffy coat. Cells were then washed twice in PBS, and red blood cells were lysed by suspension in 5 ml ammonium chloride solution (1× Red Blood Cell Lysis Buffer, eBioscience) for 5 minutes at room temperature. After a final wash in PBS, PBMC were resuspended at a final concentration of 2×10^6/ml in RPMI-1640 media with L-glutamine (Invitrogen) and supplemented with 25 mM HEPES (Mediatech, Inc, Manassas Va.), 10% fetal bovine serum (HyClone, Logan, Utah), and Penicillin-Streptomycin-Glutamine (Mediatech) and plated at 100 ul/well (2×10^5 cells/well) in tissue culture treated 96-well plates (Falcon).
Antagonist compounds solubilized and serial diluted in 100% DMSO were added in triplicate to cells to yield a final concentration of 0.1% DMSO (v/v). Hydroxychloroquine (Acros Organics) solubilized and serial diluted in PBS was added in triplicate to cells. PBMC were incubated with antagonist compounds or HCQ for 30 minutes at 37° C., 5% CO2 before adding various TLR agonist reagents in 100 ul complete media per well as follows (final concentrations indicated): R848 (Resiquimod; GLSynthesis, Worcester, Mass.) at 1 uM for TLR7 and TLR8, Pam3CSK4 (InvivoGen) at 50 ng/ml for TLR1/2, LPS (Sigma) at 10 ng/ml for TLR4, and CpG-2216 (InvivoGen) at 5 ug/ml for TLR9. […] The resulting “RNA-Ig” stimulus was incubated at room temperature for 15-30 minutes before adding to cells. PBMC were incubated with the various TLR agonists for 20 hours at 37° C., 5% CO2. Cell culture supernatants were collected, and levels of various human cytokines were assessed as indicated by standard ELISA procedure according to the manufacturer's recommended protocol (BD Biosciences, Inc., San Diego, Calif.).

## C[C@H]1C[C@@H](N)CN(c2ccc(C#N)c3ncccc23)C1 [ER-888840, 5-((3R,5S)-3-amino-5-methylpiperidin-1-yl)quinoline-8-carbonitrile]
Mouse TLR7; 6 h after oral dose, 33 mg/kg
  % Suppression vs. Vehicle: 100%
Mouse TLR7; 13 hr after oral dose, 11 mg/kg
  % Suppression vs. Vehicle: 53%
Mouse TLR7; 13 hr after oral dose, 33 mg/kg
  % Suppression vs. Vehicle: 95%
Mouse TLR7; 13 hr after oral dose, 100 mg/kg
  % Suppression vs. Vehicle: 100%
Mouse TLR7; 24 hr after oral dose, 11 mg/kg
  % Suppression vs. Vehicle: 24%
Mouse TLR7; 24 hr after oral dose, 33 mg/kg
  % Suppression vs. Vehicle: 0%
Mouse TLR7; 24 hr after oral dose, 100 mg/kg
  % Suppression vs. Vehicle: 98%
Mouse TLR7; 24 hr after oral dose, 300 mg/kg
  % Suppression vs. Vehicle: 100%
Human TLR7/8
  IC50: 1.4 nM
